The assay deals with common gut microbes. Description: Gut microbe growth on carbohydrate food sources (96-well carbohydrate array, A600 growth curves), whole panel. It is filed as cell-based. To be noted: all of the gut microflora cultures, sole carbohydrate source, anaerobic, 37° C. Here is the method:
The ability of common gut microbes to grow on carbohydrate food sources was measured using a custom carbohydrate array constructed in a 96-well format. See for example, Martens E C, et al, “Recognition and Degradation of Plant Cell Wall Polysaccharides by Two Human Gut Symbionts,” PLOS Biology, volume 9, issue 12, page e1001221 (2011) and Martens E C, Chiang H C, Gordon J I, “Mucosal glycan foraging enhances fitness and transmission of a saccharolytic human gut bacterial symbiont.” Cell Host Microbe 4: 447-457 (2008). Each well of a flat bottom 96-well plate was loaded with 100 µL of each sterilized carbohydrate stock at 2× concentration.
Each substrate was represented in […] on each assay plate in two non-adjacent wells. Two carbohydrate-free water wells were included as negative controls. […] Plates were then loaded into an automated plate handling device coupled to an absorbance reader. Absorbance at 600 nm (A600) was measured for each well at 10-15 min intervals. […]

In the case of `CC(=O)N[C@H]1C(O)O[C@H](CO)[C@@H](O)[C@@H]1O` (stereo partly shown) [N-acetylglucosamine], the “growth of the gut microflora cultures on the carbohydrate” value is reported as “grew well”.

Values taken from patent publication US20210121486A1, “ANIMAL THERAPEUTIC AND FEED COMPOSITIONS AND METHODS OF USE” (Cadena Bio, Inc., priority 2015, published 2021).
